What was measured:
Aβtotal = assay: Screening for γ-secretase-modulating activity: Aβtotal in supernatant of SKNBE2 cells carrying hAPP 695 wild type (Alphalisa); assay type: cell-based, human; details: overnight incubation, Alphalisa on supernatant
Protocol: (§1) Pharmacology A) Screening of the Compounds of the Invention for γ-Secretase-Modulating Activity
(§2) Screening was carried out using SKNBE2 human neuroblastoma cells carrying the hAPP 695—wild type, grown in Dulbecco's Modified Eagle's Medium/Nutrient mixture F-12 (DMEM/NUT-mix F-12) (HAM) provided by Invitrogen (cat no. 10371-029) containing 5% Serum/Fe supplemented with 1% non-essential amino acids, 1-glutamine 2 mM, Hepes 15 mM, penicillin 50 U/mL (units/mL) en streptomycin 50 μg/mL. Cells were grown to near confluency.
(§3) The screening was performed using a modification of the assay as described in Citron et al (1997) Nature Medicine 3: 67. Briefly, cells were plated in a 384-well plate at 10^4 cells/well in Ultraculture (Lonza, BE12-725F) supplemented with 1% glutamine (Invitrogen, 25030-024), 1% non-essential amino acid (NEAA), penicillin 50 U/mL en streptomycin 50 μg/mL in the presence of test compound at different test concentrations. The cell/compound mixture was incubated overnight at 37° C., 5% CO2. The next day the media were assayed by two sandwich immuno-assays, for Aβ42 and Aβtotal.
(§4) Aβtotal and Aβ42 concentrations were quantified in the cell supernatant using the Aphalisa technology (Perkin Elmer). Alphalisa is a sandwich assay using biotinylated antibody attached to streptavidin coated donorbeads and antibody conjugated to acceptor beads. In the presence of antigen, the beads come into close proximity. The excitation of the donor beads provokes the release of singlet oxygen molecules that trigger a cascade of energy transfer in the acceptor beads, resulting in light emission. To quantify the amount of Aβ42 in the cell supernatant, monoclonal antibody specific to the C-terminus of Aβ42 (JRF/cAβ42/26) was coupled to the receptor beads and biotinylated antibody specific to the N-terminus of Aβ (JRF/AβN/25) was used to react with the donor beads. To quantify the amount of Aβ total in the cell supernatant, monoclonal antibody specific to the N-terminus of Aβ (JRF/AβN/25) was coupled to the receptor beads and biotinylated antibody specific to the mid region of Aβ (biotinylated 4G8) was used to react with the donor beads.
(§5) To obtain the values reported in Table 3, the data are calculated as percentage of the maximum amount of amyloid Beta 42 measured in the absence of the test compound. The sigmoidal dose response curves were analyzed using nonlinear regression analysis with percentage of the control plotted against the log concentration of the compound. A 4-parameter equation was used to determine the IC50.

Aβ42 = assay: Screening for γ-secretase-modulating activity: Aβ42 in supernatant of SKNBE2 cells carrying hAPP 695 wild type (Alphalisa); assay type: cell-based, human; details: overnight incubation, Alphalisa on supernatant
Protocol: as §1, §2, §3, §4, §5

[1] = SKNBE2 human neuroblastoma cells carrying hAPP 695 wild type
[2] = Homo sapiens, SKNBE2, SKNBE2 human neuroblastoma cells carrying hAPP 695 wild type

SMILES	IC50 (Aβtotal; [1]) [µM]	IC50 (Aβ42; [1]) [µM]	IC50 (Aβtotal; [2]) [µM]	IC50 (Aβ42; [2]) [µM]
Cc1cc(F)ccc1C1CCCn2nc(-c3cc4cc(C#N)ncc4[nH]3)nc21 (centres unmarked) [Compound 68, 2-[8-(4-fluoro-2-methylphenyl)-5,6,7,8-tetrahydro[1,2,4]triazolo[1,5-a]pyridin-2-yl]-1H-pyrrolo[2,3-c]pyridine-5-carbonitrile]			> 10	0.316
Cc1cc(F)ccc1C1CCCn2nc(-c3cc4nc(-c5cnn(C)c5)ccc4[nH]3)nc21 (centres unmarked) [Compound 70, 8-(4-fluoro-2-methylphenyl)-5,6,7,8-tetrahydro-2-[5-(1-methyl-1H-pyrazol-4-yl)-1H-pyrrolo[3,2-b]pyridin-2-yl]-[1,2,4]triazolo[1,5-a]pyridine]	> 10	1		
Cc1cc(F)ccc1C1CCCn2cc(-c3cc4nc(C#N)ccc4[nH]3)nc21 (centres unmarked) [Compound 75, 2-[8-(4-fluoro-2-methylphenyl)-5,6,7,8-tetrahydroimidazo[1,2-a]pyridin-2-yl]-1H-pyrrolo[3,2-b]pyridine-5-carbonitrile]			> 10	0.174
Cc1cc(F)ccc1C1CCCn2cc(-c3cc4nc(-c5cnn(C)c5)ccc4[nH]3)nc21 (centres unmarked) [Compound 86, 2-[8-(4-fluoro-2-methylphenyl)-5,6,7,8-tetrahydroimidazo[1,2-a]pyridin-2-yl]-5-(1-methyl-1H-pyrazol-4-yl)-1H-pyrrolo[3,2-b]pyridine]	> 10	0.112		
COCc1ccccc1C1CCCn2nc(-c3cc4c(OC)c(C#N)ccc4[nH]3)nc21 (centres unmarked) [Compound 89, 4-methoxy-2-[5,6,7,8-tetrahydro-8-[2-(methoxymethyl)phenyl][1,2,4]triazolo[1,5-a]pyridin-2-yl]-1H-indole-5-carbonitrile]		0.056	> 10	
COCc1ccccc1C1CCCn2nc(-c3cc4c(OC)c(C#N)ccc4[nH]3)nc21 (centres unmarked) [Compound 90, 4-methoxy-2-[5,6,7,8-tetrahydro-8-[2-(methoxymethyl)phenyl][1,2,4]triazolo[1,5-a]pyridin-2-yl]-1H-indole-5-carbonitrile]	> 10	0.04		
Cc1cn(-c2ccc3cc(-c4nc5n(n4)CCCC5c4ccc(F)cc4C)[nH]c3c2)cn1 (centres unmarked) [Compound 93]			> 10	1.48
Cc1cn(-c2ccc3[nH]c(-c4nc5n(n4)CCOC5c4ccc(F)cc4C)cc3n2)cn1 (centres unmarked) [Compound 94, 8-(4-fluoro-2-methylphenyl)-5,6-dihydro-2-[5-(4-methyl-1H-imidazol-1-yl)-1H-pyrrolo[3,2-b]pyridin-2-yl]-8H-[1,2,4]triazolo[5,1-c][1,4]oxazine]			1.82	0.17
Cc1cn(-c2ccc3[nH]c(-c4nc5n(n4)CCOC5c4ccc(F)c(F)c4C)cc3c2)cn1 (centres unmarked) [Compound 104, 8-(3,4-difluoro-2-methylphenyl)-5,6-dihydro-2-[5-(4-methyl-1H-imidazol-1-yl)-1H-indol-2-yl]-8H-[1,2,4]triazolo[5,1-c][1,4]oxazine]			> 10	0.044
Cc1cc(-c2ccc3[nH]c(-c4nc5n(n4)CCOC5c4ccc(F)cc4C)cc3c2)ccn1 (centres unmarked) [Compound 108, 8-(4-fluoro-2-methylphenyl)-5,6-dihydro-2-[5-(2-methyl-4-pyridinyl)-1H-indol-2-yl]-8H-[1,2,4]triazolo[5,1-c][1,4]oxazine]			> 10	0.04
COc1c(C#N)ccc2[nH]c(-c3cn4c(n3)C(c3c(F)cccc3Cl)OCC4)cc12 (centres unmarked) [Compound 119, 2-[8-(2-chloro-6-fluorophenyl)-5,6-dihydro-8H-imidazo[2,1-c][1,4]oxazin-2-yl]-4-methoxy-1H-indole-5-carbonitrile]			> 10	0.055
COCc1ccccc1C1OCCn2cc(-c3cc4c(OC)c(C#N)ccc4[nH]3)nc21 (centres unmarked) [Compound 120, 2-[5,6-dihydro-8-[2-(methoxymethyl)phenyl]-8H-imidazo[2,1-c][1,4]oxazin-2-yl]-4-methoxy-1H-indole-5-carbonitrile]		0.123	> 10	
COc1c(C#N)ccc2[nH]c(-c3nc4n(n3)CCOC4c3cc(C(F)(F)F)ccc3F)cc12 (centres unmarked) [Compound 121, 2-[8-[2-fluoro-5-(trifluoromethyl)phenyl]-5,6-dihydro-8H-[1,2,4]triazolo[5,1-c][1,4]oxazin-2-yl]-4-methoxy-1H-indole-5-carbonitrile]			> 10	0.11
COc1c(C#N)ccc2[nH]c(-c3cn4c(n3)C(c3c(C)cccc3F)OCC4)cc12 (centres unmarked) [Compound 124, 2-[8-(2-fluoro-6-methylphenyl)-5,6-dihydro-8H-imidazo[2,1-c][1,4]oxazin-2-yl]-4-methoxy-1H-indole-5-carbonitrile]		0.047	> 10	
COc1c(C#N)ccc2[nH]c(-c3cn4c(n3)C(c3cc(C(F)(F)F)ccc3F)OCC4)cc12 (centres unmarked) [Compound 128, 2-[8-[2-fluoro-5-(trifluoromethyl)phenyl]-5,6-dihydro-8H-imidazo[2,1-c][1,4]oxazin-2-yl]-4-methoxy-1H-indole-5-carbonitrile]		0.06	> 10	
COc1c(C#N)ccc2[nH]c(-c3nc4n(n3)CCOC4c3c(C)cccc3F)cc12 (centres unmarked) [Compound 129, 2-[8-(2-fluoro-6-methylphenyl)-5,6-dihydro-8H-[1,2,4]triazolo[5,1-c][1,4]oxazin-2-yl]-4-methoxy-1H-indole-5-carbonitrile]		0.046	> 10	
COc1c(C#N)ccc2[nH]c(-c3nc4n(n3)CCOC4c3ccccc3Cl)cc12 (centres unmarked) [Compound 130, 2-[8-(2-chlorophenyl)-5,6-dihydro-8H-[1,2,4]triazolo[5,1-c][1,4]oxazin-2-yl]-4-methoxy-1H-indole-5-carbonitrile]		0.079	> 10	

Next, values leading:

IC50 (Aβtotal; [1]) [µM]	IC50 (Aβ42; [1]) [µM]	IC50 (Aβtotal; [2]) [µM]	IC50 (Aβ42; [2]) [µM]	SMILES
> 10	0.447			Cc1cn(-c2ccc3[nH]c(-c4nc5n(n4)CCCC5c4ccc(F)cc4C)cc3n2)cn1 (centres unmarked) [Compound 66, 8-(4-fluoro-2-methylphenyl)-5,6,7,8-tetrahydro-2-[5-(4-methyl-1H-imidazol-1-yl)-1H-pyrrolo[3,2-b]pyridin-2-yl]-[1,2,4]triazolo[1,5-a]pyridine]
	9.12	> 10		Cc1cc(F)ccc1C1CCCn2cc(-c3cc4nc(-c5cnn(C)c5)ccc4[nH]3)nc21 (centres unmarked) [Compound 85, 2-[8-(4-fluoro-2-methylphenyl)-5,6,7,8-tetrahydroimidazo[1,2-a]pyridin-2-yl]-5-(1-methyl-1H-pyrazol-4-yl)-1H-pyrrolo[3,2-b]pyridine]
> 10	1.2			COCc1ccccc1C1CCCn2nc(-c3cc4c(OC)c(C#N)ccc4[nH]3)nc21 (centres unmarked) [Compound 91, 4-methoxy-2-[5,6,7,8-tetrahydro-8-[2-(methoxymethyl)phenyl][1,2,4]triazolo[1,5-a]pyridin-2-yl]-1H-indole-5-carbonitrile]
		> 10	0.355	CCc1cc(F)ccc1C1OCCn2nc(-c3cc4cc(C#N)ccc4[nH]3)nc21 (centres unmarked) [Compound 95, 2-[8-(2-ethyl-4-fluorophenyl)-5,6-dihydro-8H-[1,2,4]triazolo[5,1-c][1,4]oxazin-2-yl]-1H-indole-5-carbonitrile]
		> 10	0.148	Cc1cc(F)ccc1C1OCCn2nc(-c3cc4cc(-c5cnn(C)c5)ccc4[nH]3)nc21 (centres unmarked) [Compound 107, 8-(4-fluoro-2-methylphenyl)-5,6-dihydro-2-[5-(1-methyl-1H-pyrazol-4-yl)-1H-indol-2-yl]-8H-[1,2,4]triazolo[5,1-c][1,4]oxazine]
	0.071	> 10		COc1c(C#N)ccc2[nH]c(-c3nc4n(n3)CCOC4c3c(F)cccc3C(F)(F)F)cc12 (centres unmarked) [Compound 125, 2-[8-[2-fluoro-6-(trifluoromethyl)phenyl]-5,6-dihydro-8H-[1,2,4]triazolo[5,1-c][1,4]oxazin-2-yl]-4-methoxy-1H-indole-5-carbonitrile]
	0.055	> 10		COc1c(C#N)ccc2[nH]c(-c3cn4c(n3)C(c3c(F)cccc3C(F)(F)F)OCC4)cc12 (centres unmarked) [Compound 126, 2-[8-[2-fluoro-6-(trifluoromethyl)phenyl]-5,6-dihydro-8H-imidazo[2,1-c][1,4]oxazin-2-yl]-4-methoxy-1H-indole-5-carbonitrile]
	0.033	> 10		COc1c(C#N)ccc2[nH]c(-c3nc4n(n3)CCOC4c3cccc(F)c3C)cc12 (centres unmarked) [Compound 127, 2-[8-(3-fluoro-2-methylphenyl)-5,6-dihydro-8H-[1,2,4]triazolo[5,1-c][1,4]oxazin-2-yl]-4-methoxy-1H-indole-5-carbonitrile]

Reference: patent publication US9115143B2, “Substituted indole derivatives as gamma secretase modulators” (Janssen Pharmaceuticals, Inc., priority 2011, dated 2015)
